Measured values as given in patent US20070128217A1 (priority 2003, published 2007).

Legend:
[1] = system: antibodies in sera from SARS patients (sera 1a, 1b, 2, 6, 37, 62, London, SARS-yellow, SARS-green); format: binding, human; set-up: Binding of serum 6 to linear peptides of protein X1 of SARS-CoV Urbani / Binding of serum 37 to linear peptides of protein X1 of SARS-CoV Urbani / Binding of serum 6 to looped/cyclic peptide (PEPSCAN-ELISA) / Binding of serum 37 to looped/cyclic peptide (PEPSCAN-ELISA) / Binding of serum 37 to looped/cyclic peptides of protein X1 of SARS-CoV Urbani / Binding of serum 6 to linear peptides of protein X2 / Binding of serum 37 to linear peptides of protein X2 / Binding of serum 37 to looped/cyclic peptides of protein X2 of SARS-CoV Urbani / Binding of serum 6 to linear peptides of protein M of SARS-CoV Urbani / Binding of serum 37 to linear peptides of protein M of SARS-CoV Urbani / Binding of serum 6 to looped/cyclic peptides of protein M of SARS-CoV Urbani / Binding of serum 37 to looped/cyclic peptides of protein M of SARS-CoV Urbani / Binding of serum 6 to linear peptides of protein X3 of SARS-CoV Urbani / Binding of serum 37 to linear peptides of protein X3 of SARS-CoV Urbani / Binding of serum 37 to looped/cyclic peptides of protein X3 of SARS-CoV Urbani / Binding of serum 6 to linear peptides of protein X4 of SARS-CoV Urbani / Binding of serum 37 to linear peptides of protein X4 of SARS-CoV Urbani / Binding of serum 37 to looped/cyclic peptides of protein X4 of SARS-CoV Urbani / Binding of serum 6 to linear peptides of protein X5 of SARS-CoV Urbani / Binding of serum 37 to linear peptides of protein X5 of SARS-CoV Urbani / Binding of serum 37 to looped/cyclic peptides of protein X5 of SARS-CoV Urbani / Binding of serum 6 to linear peptides of protein N of SARS-CoV Urbani / Binding of serum 37 to linear peptides of protein N of SARS-CoV Urbani / Binding of serum 6 to linear peptide (PEPSCAN-ELISA) / Binding of serum 1a to looped/cyclic peptides of protein N of SARS-CoV Urbani / Binding of serum 1b to looped/cyclic peptides of protein N of SARS-CoV Urbani / Binding of serum 2 to looped/cyclic peptides of protein N of SARS-CoV Urbani / Binding of serum 6 to looped/cyclic peptides of protein N of SARS-CoV Urbani / Binding of serum 37 to looped/cyclic peptides of protein N of SARS-CoV Urbani / Binding of serum 62 to looped/cyclic peptides of protein N of SARS-CoV Urbani / Binding of serum London to looped/cyclic peptides of protein N of SARS-CoV Urbani / Binding of serum SARS-green to looped/cyclic peptides of protein N of SARS-CoV Urbani: unit not given here
[2] = system: rabbit serum obtained by immunizing a rabbit with the SARS-CoV strain Frankfurt 1; format: binding; set-up: Binding of a rabbit serum to linear peptides / Binding of a rabbit serum to looped peptides / Rabbit serum linear peptides / Rabbit serum looped peptides / Binding of a rabbit serum to linear peptides of protein N of SARS-CoV Urbani (Rabbit serum linear peptides) / Binding of a rabbit serum to looped/cyclic peptides of protein N of SARS-CoV Urbani (Rabbit serum looped peptides): unit not given here
[3] = system: control sera (pooled serum of ten healthy LUMC hospital workers; commercial negative donor pooled serum from the Dutch bloodbank); format: binding, human; set-up: Binding of Control serum LUMC to linear peptides / Binding of Control serum Blood-bank to linear peptides / Binding of Control serum LUMC to looped peptides / Binding of Control Serum Blood-Bank to Looped peptides / Binding of Control serum LUMC to linear peptides of the protein M of SARS-CoV Urbani / Binding of Control serum Blood-bank to linear peptides of the protein M of SARS-CoV Urbani / Binding of Control serum LUMC to looped peptides of the protein M of SARS-CoV Urbani / Binding of Control Serum Blood-Bank to Looped peptides of the protein M of SARS-CoV Urbani: unit not given here

Sequence: GFAAYNRYRIGNYKL
- Binding of serum 1a to linear peptides of protein M of SARS-CoV Urbani [1]: 0.6
- Binding of serum 1a to looped/cyclic peptides of protein M of SARS-CoV Urbani [1]: 0.7
- Binding of serum 1b to linear peptides of protein M of SARS-CoV Urbani [1]: 0.4
- Binding of serum 1b to looped/cyclic peptides of protein M of SARS-CoV Urbani [1]: 0.2
- Binding of serum 2 to linear peptides of protein M of SARS-CoV Urbani [1]: 0.4
- Binding of serum 2 to looped/cyclic peptides of protein M of SARS-CoV Urbani [1]: 0.6
- Binding of serum 6 to linear peptides of protein M of SARS-CoV Urbani [1]: 0.8
- Binding of serum 6 to looped/cyclic peptides of protein M of SARS-CoV Urbani [1]: 0.7
- Binding of serum 37 to linear peptides of protein M of SARS-CoV Urbani [1]: 0.5
- Binding of serum 37 to looped/cyclic peptides of protein M of SARS-CoV Urbani [1]: 0.6
- Binding of serum 62 to linear peptides of protein M of SARS-CoV Urbani [1]: 0.5
- Binding of serum 62 to looped/cyclic peptides of protein M of SARS-CoV Urbani [1]: 0.5
- Binding of serum London to linear peptides of protein M of SARS-CoV Urbani [1]: 0.4
- Binding of serum London to looped/cyclic peptides of protein M of SARS-CoV Urbani [1]: 0.2
- Binding of serum SARS-green to linear peptides of protein M of SARS-CoV Urbani [1]: 0.3
- Binding of serum SARS-green to looped/cyclic peptides of protein M of SARS-CoV Urbani [1]: 0.2
- Binding of serum SARS-yellow to linear peptides of protein M of SARS-CoV Urbani [1]: 0.1
- Binding of serum SARS-yellow to looped/cyclic peptides of protein M of SARS-CoV Urbani [1]: 0.5
- Rabbit serum linear peptides [2]: 0.2
- Rabbit serum looped peptides [2]: 0.5
- Binding of Control Serum Blood-Bank to Looped peptides of the protein M of SARS-CoV Urbani [3]: 0.5
- Binding of Control serum Blood-bank to linear peptides of the protein M of SARS-CoV Urbani [3]: 0.7
- Binding of Control serum LUMC to linear peptides of the protein M of SARS-CoV Urbani [3]: 0.8
- Binding of Control serum LUMC to looped peptides of the protein M of SARS-CoV Urbani [3]: 0.6

Sequence: GFLFLAWIMLLQFAY
- Binding of serum 1a to linear peptides of protein M of SARS-CoV Urbani [1]: 0.7
- Binding of serum 1a to looped/cyclic peptides of protein M of SARS-CoV Urbani [1]: 0.6
- Binding of serum 1b to linear peptides of protein M of SARS-CoV Urbani [1]: 0.5
- Binding of serum 1b to looped/cyclic peptides of protein M of SARS-CoV Urbani [1]: 0.6
- Binding of serum 2 to linear peptides of protein M of SARS-CoV Urbani [1]: 0.5
- Binding of serum 2 to looped/cyclic peptides of protein M of SARS-CoV Urbani [1]: 0.5
- Binding of serum 6 to linear peptides of protein M of SARS-CoV Urbani [1]: 0.3
- Binding of serum 6 to looped/cyclic peptides of protein M of SARS-CoV Urbani [1]: 0.6
- Binding of serum 37 to linear peptides of protein M of SARS-CoV Urbani [1]: 0.7
- Binding of serum 37 to looped/cyclic peptides of protein M of SARS-CoV Urbani [1]: 0.6
- Binding of serum 62 to linear peptides of protein M of SARS-CoV Urbani [1]: 0.7
- Binding of serum 62 to looped/cyclic peptides of protein M of SARS-CoV Urbani [1]: 0.6
- Binding of serum London to linear peptides of protein M of SARS-CoV Urbani [1]: 0.3
- Binding of serum London to looped/cyclic peptides of protein M of SARS-CoV Urbani [1]: 0.2
- Binding of serum SARS-green to linear peptides of protein M of SARS-CoV Urbani [1]: 0.2
- Binding of serum SARS-green to looped/cyclic peptides of protein M of SARS-CoV Urbani [1]: 0.3
- Binding of serum SARS-yellow to linear peptides of protein M of SARS-CoV Urbani [1]: 0.0
- Binding of serum SARS-yellow to looped/cyclic peptides of protein M of SARS-CoV Urbani [1]: 0.4
- Rabbit serum linear peptides [2]: 0.3
- Rabbit serum looped peptides [2]: 0.4
- Binding of Control Serum Blood-Bank to Looped peptides of the protein M of SARS-CoV Urbani [3]: 0.6
- Binding of Control serum Blood-bank to linear peptides of the protein M of SARS-CoV Urbani [3]: 0.7
- Binding of Control serum LUMC to linear peptides of the protein M of SARS-CoV Urbani [3]: 0.3
- Binding of Control serum LUMC to looped peptides of the protein M of SARS-CoV Urbani [3]: 0.7
